In ChEMBL document CHEMBL1155237, “Selective inhibitors of the mutant B-Raf pathway: discovery of a potent and orally bioavailable aminoisoquinoline” (J Med Chem, 2009):

What was measured:
[1] = target: Serine/threonine-protein kinase D1 (Homo sapiens) (UniProt Q15139); test: Inhibition of PRKD1 assessed as enzyme activity at 1 uM relative to untreated control; parameters: scale not given: the % may be the effect or the level left
[2] = test system: Phosphatidylinositol 4,5-bisphosphate 3-kinase catalytic subunit alpha isoform (Homo sapiens), P42336 [E545K]; test: Inhibition of PIK3CA E545K mutant assessed as enzyme activity at 1 uM relative to untreated control; parameters: scale not given: the % may be the effect or the level left
[3] = target: Platelet-derived growth factor receptor alpha (Homo sapiens) (UniProt P16234); test: Inhibition of PDGFRA assessed as enzyme activity at 1 uM relative to untreated control; parameters: scale not given: the % may be the effect or the level left
[4] = target: Ephrin type-B receptor 4 (Homo sapiens) (UniProt P54760); test: Inhibition of EPHB4 assessed as enzyme activity at 1 uM relative to untreated control; parameters: scale not given: the % may be the effect or the level left
[5] = target: Death-associated protein kinase 2 (Homo sapiens) (UniProt Q9UIK4); test: Inhibition of DAPK2 assessed as enzyme activity at 1 uM relative to untreated control; parameters: scale not given: the % may be the effect or the level left
[6] = test system: Tyrosine-protein kinase ABL1 (Homo sapiens), P00519 [Y253F]; test: Inhibition of ABL1 Y253F mutant assessed as enzyme activity at 1 uM relative to untreated control; parameters: scale not given: the % may be the effect or the level left
[7] = target: BMP-2-inducible protein kinase (Homo sapiens) (UniProt Q9NSY1); test: Inhibition of BIKE assessed as enzyme activity at 1 uM relative to untreated control; parameters: scale not given: the % may be the effect or the level left
[8] = target: Serine/threonine-protein kinase 17B (Homo sapiens) (UniProt O94768); test: Inhibition of DRAK2 assessed as enzyme activity at 1 uM relative to untreated control; parameters: scale not given: the % may be the effect or the level left
[9] = target: Phosphorylase b kinase gamma catalytic chain, skeletal muscle/heart isoform (Homo sapiens) (UniProt Q16816); test: Inhibition of PHKG1 assessed as enzyme activity at 1 uM relative to untreated control; parameters: scale not given: the % may be the effect or the level left
[10] = target: Mitogen-activated protein kinase 1 (Homo sapiens) (UniProt P28482); test: Inhibition of ERK2 assessed as enzyme activity at 1 uM relative to untreated control; parameters: scale not given: the % may be the effect or the level left
[11] = target: Dual specificity testis-specific protein kinase 1 (Homo sapiens) (UniProt Q15569); test: Inhibition of TESK1 assessed as enzyme activity at 1 uM relative to untreated control; parameters: scale not given: the % may be the effect or the level left
[12] = target: Epithelial discoidin domain-containing receptor 1 (Homo sapiens) (UniProt Q08345); test: Inhibition of DDR1 dyscoidin domain assessed as enzyme activity at 1 uM relative to untreated control; parameters: scale not given: the % may be the effect or the level left
[13] = target: Ephrin type-A receptor 1 (Homo sapiens) (UniProt P21709); test: Inhibition of EPHA1 assessed as enzyme activity at 1 uM relative to untreated control; parameters: scale not given: the % may be the effect or the level left
[14] = test system: Tyrosine-protein kinase ABL1 (Homo sapiens), P00519 [Q252H]; test: Inhibition of ABL1 Q252H mutant assessed as enzyme activity at 1 uM relative to untreated control; parameters: scale not given: the % may be the effect or the level left
[15] = target: Non-receptor tyrosine-protein kinase TYK2 (Homo sapiens) (UniProt P29597); test: Inhibition of TYK2 kinase domain 2 assessed as enzyme activity at 1 uM relative to untreated control; parameters: scale not given: the % may be the effect or the level left
[16] = test system: A-375; test: Antitumor activity against human A375 SQ2 cells xenografted in CD1 mouse assessed as inhibition of tumor growth at 1 mg/kg, po qd for 14 days; format: functional; settings: A-375, 336 h
[17] = target: Ephrin type-A receptor 8 (Homo sapiens) (UniProt P29322); test: Inhibition of EPHA8 assessed as enzyme activity at 1 uM relative to untreated control; parameters: scale not given: the % may be the effect or the level left
[18] = target: Activin receptor type-1-like (Homo sapiens) (UniProt P37023); test: Inhibition of ACVRL1 assessed as enzyme activity at 1 uM relative to untreated control; parameters: scale not given: the % may be the effect or the level left
[19] = target: Mitogen-activated protein kinase kinase kinase 4 (Homo sapiens) (UniProt Q9Y6R4); test: Inhibition of MAP3K4 assessed as enzyme activity at 1 uM relative to untreated control; parameters: scale not given: the % may be the effect or the level left
[20] = target: 5'-AMP-activated protein kinase catalytic subunit alpha-2 (Homo sapiens) (UniProt P54646); test: Inhibition of AMPKalpha2 assessed as enzyme activity at 1 uM relative to untreated control; parameters: scale not given: the % may be the effect or the level left
[21] = target: Glycogen synthase kinase-3 alpha (Homo sapiens) (UniProt P49840); test: Inhibition of GSK3A assessed as enzyme activity at 1 uM relative to untreated control; parameters: scale not given: the % may be the effect or the level left
[22] = target: Serine/threonine-protein kinase STK11 (Homo sapiens) (UniProt Q15831); test: Inhibition of LKB1 assessed as enzyme activity at 1 uM relative to untreated control; parameters: scale not given: the % may be the effect or the level left
[23] = target: Myosin-IIIb (Homo sapiens) (UniProt Q8WXR4); test: Inhibition of MYO3B assessed as enzyme activity at 1 uM relative to untreated control; parameters: scale not given: the % may be the effect or the level left
[24] = target: Cyclin-dependent kinase 11A (Homo sapiens) (UniProt Q9UQ88); test: Inhibition of CDC2L2 assessed as enzyme activity at 1 uM relative to untreated control; parameters: scale not given: the % may be the effect or the level left
[25] = target: Casein kinase I isoform alpha-like (Homo sapiens) (UniProt Q8N752); test: Inhibition of CSNK1A1L assessed as enzyme activity at 1 uM relative to untreated control; parameters: scale not given: the % may be the effect or the level left
[26] = test system: A-375; test: Antitumor activity against human A375 SQ2 cells xenografted in CD1 mouse assessed as inhibition of tumor growth at 2 mg/kg, po qd for 14 days; format: functional; settings: A375-SQ2, 336 h
[27] = target: Tyrosine-protein kinase Fes/Fps (Homo sapiens) (UniProt P07332); test: Inhibition of FES assessed as enzyme activity at 1 uM relative to untreated control; parameters: scale not given: the % may be the effect or the level left
[28] = target: MAP kinase-activated protein kinase 5 (Homo sapiens) (UniProt Q8IW41); test: Inhibition of MAPKAPK5 assessed as enzyme activity at 1 uM relative to untreated control; parameters: scale not given: the % may be the effect or the level left
[29] = target: Epidermal growth factor receptor (Homo sapiens) (UniProt P04626+P00533+Q15303+P21860); test: Inhibition of EGFR E746-A750del mutant assessed as enzyme activity at 1 uM relative to untreated control; format: protein assay; parameters: scale not given: the % may be the effect or the level left
[30] = target: 5'-AMP-activated protein kinase catalytic subunit alpha-1 (Homo sapiens) (UniProt Q13131); test: Inhibition of AMPKalpha1 assessed as enzyme activity at 1 uM relative to untreated control; parameters: scale not given: the % may be the effect or the level left
[31] = target: cAMP-dependent protein kinase catalytic subunit beta (Homo sapiens) (UniProt P22694); test: Inhibition of PKACbeta assessed as enzyme activity at 1 uM relative to untreated control; parameters: scale not given: the % may be the effect or the level left
[32] = target: Cyclin-dependent kinase 9 (Homo sapiens) (UniProt P50750); test: Inhibition of CDK9 assessed as enzyme activity at 1 uM relative to untreated control; parameters: scale not given: the % may be the effect or the level left
[33] = target: Mitogen-activated protein kinase kinase kinase kinase 2 (Homo sapiens) (UniProt Q12851); test: Inhibition of MAP4K2 assessed as enzyme activity at 1 uM relative to untreated control; parameters: scale not given: the % may be the effect or the level left
[34] = target: SRSF protein kinase 3 (Homo sapiens) (UniProt Q9UPE1); test: Inhibition of SRPK3 assessed as enzyme activity at 1 uM relative to untreated control; parameters: scale not given: the % may be the effect or the level left
[35] = target: cAMP-dependent protein kinase catalytic subunit PRKX (Homo sapiens) (UniProt P51817); test: Inhibition of PRKX assessed as enzyme activity at 1 uM relative to untreated control; parameters: scale not given: the % may be the effect or the level left
[36] = target: RAF proto-oncogene serine/threonine-protein kinase (Homo sapiens) (UniProt P04049); test: Inhibition of RAF1 assessed as enzyme activity at 1 uM relative to untreated control; parameters: scale not given: the % may be the effect or the level left

Sequence of Serine/threonine-protein kinase 17B (Homo sapiens) (O94768 whole entry, canonical isoform): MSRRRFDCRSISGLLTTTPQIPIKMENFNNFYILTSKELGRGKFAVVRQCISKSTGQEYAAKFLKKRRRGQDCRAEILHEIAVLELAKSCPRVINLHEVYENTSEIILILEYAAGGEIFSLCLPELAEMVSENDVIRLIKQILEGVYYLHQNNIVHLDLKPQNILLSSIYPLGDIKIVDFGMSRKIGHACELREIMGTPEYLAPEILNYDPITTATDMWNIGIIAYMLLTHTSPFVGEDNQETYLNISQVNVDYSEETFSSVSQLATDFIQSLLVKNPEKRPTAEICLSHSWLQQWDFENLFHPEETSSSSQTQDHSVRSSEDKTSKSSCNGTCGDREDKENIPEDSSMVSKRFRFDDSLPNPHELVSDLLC
Sequence of Platelet-derived growth factor receptor alpha (Homo sapiens) (P16234 whole entry): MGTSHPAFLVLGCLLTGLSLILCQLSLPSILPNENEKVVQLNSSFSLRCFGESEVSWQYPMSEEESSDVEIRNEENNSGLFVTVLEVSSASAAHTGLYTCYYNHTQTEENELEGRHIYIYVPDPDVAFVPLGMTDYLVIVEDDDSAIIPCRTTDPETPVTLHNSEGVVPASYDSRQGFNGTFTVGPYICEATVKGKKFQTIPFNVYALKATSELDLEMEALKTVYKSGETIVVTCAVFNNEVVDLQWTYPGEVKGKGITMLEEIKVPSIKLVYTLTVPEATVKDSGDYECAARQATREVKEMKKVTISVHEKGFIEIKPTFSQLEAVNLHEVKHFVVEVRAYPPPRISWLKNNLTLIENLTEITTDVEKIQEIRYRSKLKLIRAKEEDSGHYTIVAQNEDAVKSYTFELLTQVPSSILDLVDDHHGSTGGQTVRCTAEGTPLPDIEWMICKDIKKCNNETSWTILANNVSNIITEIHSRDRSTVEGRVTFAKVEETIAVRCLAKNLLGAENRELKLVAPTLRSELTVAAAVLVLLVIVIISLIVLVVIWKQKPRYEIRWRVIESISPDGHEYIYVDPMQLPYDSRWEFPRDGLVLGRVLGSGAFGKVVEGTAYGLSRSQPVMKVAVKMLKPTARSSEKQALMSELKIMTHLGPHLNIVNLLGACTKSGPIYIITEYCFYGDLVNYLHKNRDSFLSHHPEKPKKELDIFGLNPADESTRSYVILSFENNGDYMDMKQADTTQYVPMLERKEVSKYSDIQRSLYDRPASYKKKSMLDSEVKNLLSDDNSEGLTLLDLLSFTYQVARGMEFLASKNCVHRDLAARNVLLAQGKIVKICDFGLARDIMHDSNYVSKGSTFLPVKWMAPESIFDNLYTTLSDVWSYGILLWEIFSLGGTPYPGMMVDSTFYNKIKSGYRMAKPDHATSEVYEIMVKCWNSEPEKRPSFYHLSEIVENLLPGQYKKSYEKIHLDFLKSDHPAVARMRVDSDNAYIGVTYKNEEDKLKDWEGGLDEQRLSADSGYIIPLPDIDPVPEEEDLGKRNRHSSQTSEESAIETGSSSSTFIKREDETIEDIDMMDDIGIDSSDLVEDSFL
Sequence of Ephrin type-B receptor 4 (Homo sapiens) (P54760 whole entry): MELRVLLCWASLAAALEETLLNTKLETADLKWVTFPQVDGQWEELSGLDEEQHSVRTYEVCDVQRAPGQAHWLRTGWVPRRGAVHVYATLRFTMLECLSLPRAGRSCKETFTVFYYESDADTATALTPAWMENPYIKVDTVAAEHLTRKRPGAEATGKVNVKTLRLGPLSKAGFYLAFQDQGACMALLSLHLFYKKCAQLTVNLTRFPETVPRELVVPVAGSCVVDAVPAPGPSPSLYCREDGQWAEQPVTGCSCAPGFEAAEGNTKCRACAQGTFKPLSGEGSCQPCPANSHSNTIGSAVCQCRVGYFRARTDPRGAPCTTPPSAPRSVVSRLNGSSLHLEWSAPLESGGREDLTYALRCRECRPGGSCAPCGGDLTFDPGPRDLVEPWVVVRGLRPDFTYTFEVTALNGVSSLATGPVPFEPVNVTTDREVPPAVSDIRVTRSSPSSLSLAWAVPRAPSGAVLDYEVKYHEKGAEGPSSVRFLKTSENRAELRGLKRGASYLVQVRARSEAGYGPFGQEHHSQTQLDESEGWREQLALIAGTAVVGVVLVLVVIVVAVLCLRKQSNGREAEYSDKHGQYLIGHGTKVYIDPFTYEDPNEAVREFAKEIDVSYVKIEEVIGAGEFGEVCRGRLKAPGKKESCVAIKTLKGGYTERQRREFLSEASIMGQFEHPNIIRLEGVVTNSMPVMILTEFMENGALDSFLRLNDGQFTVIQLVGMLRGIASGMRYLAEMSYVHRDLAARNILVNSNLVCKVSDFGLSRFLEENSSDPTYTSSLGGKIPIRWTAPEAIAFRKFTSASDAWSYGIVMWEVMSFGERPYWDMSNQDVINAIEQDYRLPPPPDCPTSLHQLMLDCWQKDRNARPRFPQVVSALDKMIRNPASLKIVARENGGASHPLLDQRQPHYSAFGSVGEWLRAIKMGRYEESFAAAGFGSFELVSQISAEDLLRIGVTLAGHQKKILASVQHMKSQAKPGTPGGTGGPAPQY
Sequence of Death-associated protein kinase 2 (Homo sapiens) (Q9UIK4 whole entry, looked up): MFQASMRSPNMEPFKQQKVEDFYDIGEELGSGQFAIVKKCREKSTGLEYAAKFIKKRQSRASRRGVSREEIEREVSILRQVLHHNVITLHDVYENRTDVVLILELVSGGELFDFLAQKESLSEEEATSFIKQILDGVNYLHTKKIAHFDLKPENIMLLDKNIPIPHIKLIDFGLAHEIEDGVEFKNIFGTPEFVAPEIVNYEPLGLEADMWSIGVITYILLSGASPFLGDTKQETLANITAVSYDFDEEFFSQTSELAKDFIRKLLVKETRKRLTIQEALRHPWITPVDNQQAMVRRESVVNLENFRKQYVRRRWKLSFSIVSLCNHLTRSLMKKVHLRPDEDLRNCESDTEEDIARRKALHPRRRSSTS
Sequence of Mitogen-activated protein kinase kinase kinase 4 (Homo sapiens) (Q9Y6R4 whole entry): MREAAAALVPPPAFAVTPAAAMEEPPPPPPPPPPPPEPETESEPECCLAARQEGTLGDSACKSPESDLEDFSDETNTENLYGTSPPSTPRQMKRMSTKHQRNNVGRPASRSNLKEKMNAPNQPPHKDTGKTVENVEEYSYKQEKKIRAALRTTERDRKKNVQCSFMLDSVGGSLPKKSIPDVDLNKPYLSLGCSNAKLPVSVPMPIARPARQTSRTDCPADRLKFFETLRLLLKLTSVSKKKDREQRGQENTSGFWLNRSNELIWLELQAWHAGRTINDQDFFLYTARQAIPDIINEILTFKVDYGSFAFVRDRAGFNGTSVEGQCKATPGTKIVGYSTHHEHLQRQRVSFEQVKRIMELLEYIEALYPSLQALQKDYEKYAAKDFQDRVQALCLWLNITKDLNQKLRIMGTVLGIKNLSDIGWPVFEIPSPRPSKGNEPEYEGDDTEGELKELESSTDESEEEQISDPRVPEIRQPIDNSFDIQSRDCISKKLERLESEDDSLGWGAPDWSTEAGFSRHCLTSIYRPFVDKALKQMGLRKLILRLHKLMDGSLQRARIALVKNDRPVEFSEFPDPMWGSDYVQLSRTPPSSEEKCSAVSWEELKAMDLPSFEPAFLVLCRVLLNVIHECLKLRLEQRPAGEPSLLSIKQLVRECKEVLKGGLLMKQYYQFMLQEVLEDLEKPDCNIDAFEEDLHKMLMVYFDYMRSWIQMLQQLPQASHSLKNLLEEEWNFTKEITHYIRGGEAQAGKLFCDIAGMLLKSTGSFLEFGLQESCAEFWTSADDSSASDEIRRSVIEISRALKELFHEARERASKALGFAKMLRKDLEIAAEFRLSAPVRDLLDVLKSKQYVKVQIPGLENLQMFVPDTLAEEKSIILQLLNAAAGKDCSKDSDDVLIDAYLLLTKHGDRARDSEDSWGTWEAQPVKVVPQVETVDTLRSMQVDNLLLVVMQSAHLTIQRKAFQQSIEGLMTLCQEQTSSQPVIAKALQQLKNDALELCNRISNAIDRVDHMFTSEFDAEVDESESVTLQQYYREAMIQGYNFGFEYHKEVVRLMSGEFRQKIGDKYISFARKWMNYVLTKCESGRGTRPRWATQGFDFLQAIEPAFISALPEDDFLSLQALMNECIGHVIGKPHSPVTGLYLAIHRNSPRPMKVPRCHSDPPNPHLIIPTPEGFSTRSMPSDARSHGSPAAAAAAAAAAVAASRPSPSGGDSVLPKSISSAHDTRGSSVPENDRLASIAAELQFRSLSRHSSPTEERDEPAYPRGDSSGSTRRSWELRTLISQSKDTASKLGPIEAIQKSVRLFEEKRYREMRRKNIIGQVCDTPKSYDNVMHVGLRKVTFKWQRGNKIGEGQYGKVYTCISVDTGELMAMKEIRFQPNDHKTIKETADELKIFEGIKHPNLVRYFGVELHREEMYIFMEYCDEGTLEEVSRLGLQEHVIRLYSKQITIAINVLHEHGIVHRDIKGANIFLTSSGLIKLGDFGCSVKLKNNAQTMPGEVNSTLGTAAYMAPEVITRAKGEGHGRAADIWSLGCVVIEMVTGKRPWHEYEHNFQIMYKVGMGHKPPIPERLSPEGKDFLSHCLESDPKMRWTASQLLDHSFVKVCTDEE
Sequence of MAP kinase-activated protein kinase 5 (Homo sapiens) (Q8IW41 whole entry): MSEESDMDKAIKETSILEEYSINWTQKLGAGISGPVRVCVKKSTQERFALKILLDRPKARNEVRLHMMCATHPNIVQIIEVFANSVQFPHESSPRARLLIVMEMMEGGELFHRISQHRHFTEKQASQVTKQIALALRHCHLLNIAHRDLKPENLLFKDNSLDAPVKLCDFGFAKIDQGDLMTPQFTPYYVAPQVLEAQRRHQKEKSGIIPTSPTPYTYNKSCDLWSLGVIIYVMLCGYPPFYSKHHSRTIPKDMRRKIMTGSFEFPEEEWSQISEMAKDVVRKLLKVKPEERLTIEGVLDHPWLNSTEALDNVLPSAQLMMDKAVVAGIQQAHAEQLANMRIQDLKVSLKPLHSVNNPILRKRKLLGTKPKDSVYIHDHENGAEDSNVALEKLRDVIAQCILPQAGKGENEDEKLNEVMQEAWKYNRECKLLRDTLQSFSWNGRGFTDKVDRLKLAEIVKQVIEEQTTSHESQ

In the case of Cc1ccc2c(Nc3ccc(Cl)cc3)nccc2c1Nc1ncccc1-c1ncnc2[nH]cnc12.Cl.Cl.Cl, the Activity [1] is reported as 100%, the Activity [2] is reported as 100% and the Activity [3] is reported as 88%. It also gave an Activity [4] of 6.5%, an Activity [5] of 100% and an Activity [6] of 61%. It also gave an Activity [7] of 70%, an Activity [8] of 96% and an Activity [9] of 99%. It also gave an Activity [10] of 100%, an Activity [11] of 21% and an Activity [12] of 0.1%. The Activity [13] was 4.6%, the Activity [14] was 71% and the Activity [15] was 28%. For the same compound, the inhibition in vivo at 1 mg/kg [16] was 22%, the Activity [17] was 0.45% and the Activity [18] was 92%. It also gave an Activity [19] of 100%, an Activity [20] of 96% and an Activity [21] of 100%. For the same compound, the Activity [22] was 100%, the Activity [23] was 68% and the Activity [24] was 33%. The Activity [25] was 95%, the inhibition in vivo at 2 mg/kg [26] was 90% and the Activity [27] was 100%. It also gave an Activity [28] of 64%, an Activity [29] of 86% and an Activity [30] of 89%. It also gave an Activity [31] of 94%, an Activity [32] of 97% and an Activity [33] of 100%. For the same compound, the Activity [34] was 100%, the Activity [35] was 65% and the Activity [36] was 0%.
